Results reported in ChEMBL document CHEMBL1134247, “Glycosidase inhibition by cyclic sulfonium compounds” (Bioorg Med Chem Lett, 2001).
Values belong to the compound of their own block, whether it stands above or below them.

Tests used:
[1] = Inhibitory concentration of compound against Alpha-glucosidase from rice; not active at less than 50% inhibition
[2] = system: beta-glucosidase (Prunus dulcis); test: Inhibitory concentration of compound against Beta-glucosidase from Almond;not active
[3] = Inhibitory concentration of compound against Alpha-glucosidase from Baker's yeast; not active at less than 50% inhibition; parameters: species or system Saccharomyces cerevisiae
[4] = Inhibitory concentration of compound against Alpha-mannosidase of Almond; not active; parameters: species or system Prunus dulcis
[5] = Inhibitory concentration of compound against Alpha-glucosidase in rice
[6] = Inhibitory concentration of compound against Alpha-glucosidase in Bacillus stearothermophilus; parameters: species or system Geobacillus stearothermophilus
[7] = Inhibitory concentration of compound against Alpha-glucosidase in recombinant S. cerevisiae; not active; parameters: species or system Saccharomyces cerevisiae
Prunus dulcis = test: (§1) Inhibitory concentration of compound against Alpha-mannosidase of Almond
[8] = Inhibitory concentration of compound against Alpha-glucosidase in Baker's yeast; not active at less than 50% inhibition; parameters: species or system Saccharomyces cerevisiae
[9] = system: alpha-galactosidase (Coffea arabica); test: Inhibitory effect towards Alpha-galactosidase at a concentration of 2 mM from coffee beans; no inhibitory effect
Beta-galactosidase = Beta-galactosidase (Escherichia coli, UniProt Q8VNN2); test: Inhibitory effect towards Beta-galactosidase at a concentration of 2 mM from E. coli; no inhibitory effect
Sequence of Beta-galactosidase (Q8VNN2 whole entry): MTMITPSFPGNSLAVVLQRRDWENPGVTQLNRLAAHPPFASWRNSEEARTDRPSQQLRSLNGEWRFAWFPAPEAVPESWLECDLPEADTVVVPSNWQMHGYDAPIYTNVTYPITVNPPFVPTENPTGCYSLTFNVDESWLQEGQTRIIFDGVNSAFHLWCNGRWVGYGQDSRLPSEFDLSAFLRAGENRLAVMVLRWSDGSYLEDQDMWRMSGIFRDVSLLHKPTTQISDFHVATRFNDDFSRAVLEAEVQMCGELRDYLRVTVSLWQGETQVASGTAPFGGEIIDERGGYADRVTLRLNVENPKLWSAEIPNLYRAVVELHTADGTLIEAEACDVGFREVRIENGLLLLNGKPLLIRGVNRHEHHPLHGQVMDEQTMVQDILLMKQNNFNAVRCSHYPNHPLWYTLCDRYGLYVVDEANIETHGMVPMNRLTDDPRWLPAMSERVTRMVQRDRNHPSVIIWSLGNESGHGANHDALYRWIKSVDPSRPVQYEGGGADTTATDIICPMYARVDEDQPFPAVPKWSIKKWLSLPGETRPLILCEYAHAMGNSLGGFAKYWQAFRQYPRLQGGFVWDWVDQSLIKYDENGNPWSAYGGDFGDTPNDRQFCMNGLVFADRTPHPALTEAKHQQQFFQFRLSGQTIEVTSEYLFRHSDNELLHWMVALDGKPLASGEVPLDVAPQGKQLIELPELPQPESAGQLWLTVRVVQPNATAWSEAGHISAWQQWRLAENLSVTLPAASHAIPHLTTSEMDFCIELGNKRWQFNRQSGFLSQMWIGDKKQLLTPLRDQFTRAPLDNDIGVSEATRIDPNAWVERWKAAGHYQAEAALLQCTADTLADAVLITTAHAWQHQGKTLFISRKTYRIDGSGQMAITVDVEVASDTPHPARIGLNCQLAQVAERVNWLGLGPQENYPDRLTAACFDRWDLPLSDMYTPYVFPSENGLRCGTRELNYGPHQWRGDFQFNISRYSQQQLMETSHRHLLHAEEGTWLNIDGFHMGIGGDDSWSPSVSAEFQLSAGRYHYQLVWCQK

[10] = Inhibitory concentration of compound against Alpha-glucosidase from rice
[11] = system: beta-glucosidase (Prunus dulcis); test: Inhibitory concentration of compound (10:1 ratio of 10a/10b) against Beta-glucosidase from Almond; not active
[12] = Inhibitory concentration of compound (4:6 ratio of 10a/10b) against Alpha-glucosidase from Baker's yeast; parameters: species or system Saccharomyces cerevisiae
[13] = system: beta-glucosidase (Prunus dulcis); test: Inhibitory concentration of compound (4:6 ratio of 10a/10b) against Beta-Glucosidase from Almond; not active
[14] = Inhibitory concentration of compound (10:1 ratio of 10a/10b) against Alpha-glucosidase from Baker's yeast; parameters: species or system Saccharomyces cerevisiae
[15] = Inhibitory concentration of compound (4:6 ratio of 10a/10b) against Alpha-mannosidase of Almond; parameters: species or system Prunus dulcis
[16] = Inhibitory concentration of compound (10:1 ratio of 10a/10b) against Alpha-mannosidase of Almond; parameters: species or system Prunus dulcis
[17] = Inhibitory concentration of compound (10:1 ratio of 10a/10b) against Alpha-glucosidase from recombinant Saccharomyces cerevisiae
[18] = Inhibitory concentration of compound (10:1 ratio of 10a/10b) against Alpha-glucosidase from rice
[19] = Inhibitory concentration of compound (10:1 ratio of 10a/10b) against Alpha-glucosidase from Bacillus stearothermophilus; parameters: species or system Geobacillus stearothermophilus
[20] = Inhibitory concentration of compound (4:6 ratio of 10a/10b) against Alpha-glucosidase from recombinant Saccharomyces cerevisiae
[21] = Inhibitory concentration of compound (4:6 ratio of 10a/10b) against Alpha-glucosidase from Bacillus stearothermophilus; parameters: species or system Geobacillus stearothermophilus
[22] = Inhibitory concentration of compound (4:6 ratio of 10a/10b) against Alpha-glucosidase from rice
[23] = as §1; parameters: species or system Prunus dulcis
[24] = Inhibitory concentration of compound against Alpha-glucosidase from recombinant S. cerevisiae; not active at less than 50% inhibition; parameters: species or system Saccharomyces cerevisiae
[25] = Inhibitory concentration of compound against Alpha-glucosidase from B. stearothermophilus; not active at less than 50% inhibition; parameters: species or system Geobacillus stearothermophilus

SMILES: O=S(=O)([O-])O[C@@H](CO)[C@H](O)C[S+]1CCCC1
- IC50 [1]: Not Active
- IC50 [2]: Not Active
- IC50 [3]: Not Active
- IC50 [4]: Not Active

SMILES: O=S(=O)([O-])O[C@@H](CO)[C@H](O)C[S@+]1C[C@@H](O)[C@H](O)[C@@H]1CO
- IC50 [5]: 110 µM
- IC50 [6]: 2500 µM
- IC50 [7]: Not Active
- IC40 (Prunus dulcis): 2100 µM
- IC50 [8]: Not Active

SMILES: C[S+]1C[C@@H](O)[C@H](O)[C@H]1CO.[I-] (stereo partly specified)
- IC50 [11]: Not Active
- IC50 [12]: 2200 µM
- IC50 [13]: Not Active
- IC50 [14]: 360 µM
- IC50 [15]: 1200 µM
- IC50 [16]: 2100 µM
- IC50 [17]: 490 µM
- IC50 [18]: 410 µM
- IC50 [19]: 250 µM
- IC50 [20]: 2100 µM
- IC50 [21]: 1400 µM
- IC50 [22]: 2000 µM

Results, then the compound that gave them:

- IC50 [9]: No effect
- IC50 (Beta-galactosidase): No effect
- IC50 [3]: Not Active
- IC50 [10]: 1000 µM
SMILES: O=S(=O)([O-])O[C@H](CO)[C@@H](O)C[S+]1CCCC1

- IC50 (Beta-galactosidase): No effect
- IC50 [23]: 3600 µM
- IC50 [24]: Not Active
- IC50 [3]: Not Active
- IC50 [10]: 380 µM
- IC50 [25]: Not Active
SMILES: O=S(=O)([O-])O[C@H](CO)[C@@H](O)C[S@+]1C[C@@H](O)[C@H](O)[C@@H]1CO
